Laboratory results: the NIST ThermoML archive (doi:10.1016/j.jct.2007.11.010)

Test: xn = mol fraction of the nth substance listed
Details: 101 kPa, Liquid

OCCN1CCOCC1 [4-morpholineethanol] + CC(C)O
mass density [kg/m3]
Details | 293.15 K | 298.15 K | 303.15 K | 313.15 K | 323.15 K
x1 = 0.0543 | 810.11 | 806.22 | 801.63 | 792.98 | 784.44
x1 = 0.1127 | 835.5 | 831.48 | 826.84 | 818.19 | 809.79
x1 = 0.1873 | 865.79 | 861.61 | 856.92 | 848.29 | 840.07
x1 = 0.2468 | 888.39 | 884.1 | 879.38 | 870.77 | 862.71
x1 = 0.2874 | 903.13 | 898.77 | 894.03 | 885.45 | 877.5
x1 = 0.3248 | 916.03 | 911.6 | 906.84 | 898.29 | 890.46
x1 = 0.3873 | 936.59 | 932.06 | 927.29 | 918.79 | 911.14
x1 = 0.4267 | 948.75 | 944.16 | 939.38 | 930.92 | 923.4
x1 = 0.4882 | 967 | 962.32 | 957.53 | 949.14 | 941.81
x1 = 0.5237 | 976.91 | 972.17 | 967.38 | 959.03 | 951.82
x1 = 0.5894 | 994.19 | 989.37 | 984.57 | 976.32 | 969.32
x1 = 0.6422 | 1007.31 | 1002.43 | 997.63 | 989.46 | 982.63
x1 = 0.6899 | 1018.36 | 1013.43 | 1008.64 | 1000.53 | 993.87
x1 = 0.7439 | 1030.26 | 1025.27 | 1020.49 | 1012.47 | 1005.99
x1 = 0.7855 | 1038.88 | 1033.86 | 1029.09 | 1021.13 | 1014.79
x1 = 0.8238 | 1046.42 | 1041.36 | 1036.59 | 1028.7 | 1022.49
x1 = 0.8841 | 1057.54 | 1052.43 | 1047.69 | 1039.9 | 1033.9
x1 = 0.9247 | 1064.51 | 1059.37 | 1054.64 | 1046.93 | 1041.06
x1 = 0.9544 | 1069.21 | 1064.05 | 1059.33 | 1051.68 | 1045.92
x1 = 0.9844 | 1074.11 | 1068.93 | 1064.23 | 1056.62 | 1050.96
